Assay results as given in US20130190275A1, “COMBINED THERAPIES OF ANTIPSYCHOTIC DRUGS AND TETRACYCLINES IN THE TREATMENT OF PSYCHIATRIC DISORDERS” (MOR RESEARCH APPLICATIONS LTD., priority 2006, published 2013).

Tests used:
MK801 treated rats = experiment: Habituation of the Acoustic Startle Response (ASR), MK801 animal model; type: in vivo, rat
Description: Acoustic Startle Response (ASR) and Pre-Pulse Inhibition (PPI): Both experimental paradigms were performed in a room that was adjacent to the laboratory facilities and the animal stall and that was not used for other experiments. The animals were tested in squad of two with startle chambers counterbalanced across the different experimental groups. Startle response and prepulse inhibition were measured using two ventilated startle chambers (SR-LAB system, San Diego Instruments, San Diego, Calif.). Each chamber consisted of a Plexiglas cylinder resting on a platform inside a sound-attenuated, ventilated chamber. A high-frequency loudspeaker inside the chamber produced both a continuous broadband background noise of 70 dB and the various acoustic stimuli. Movement inside the tube was detected by a piezoelectric accelerometer below the frame. The amplitude of the whole body startle to an acoustic pulse was defined as the average of 100 one-msec accelerometer readings collected from pulse onset. These signals were then digitized and stored by a computer. Sound levels within each test chamber were measured routinely using a sound level meter (Radio Shack) to ensure consistent presentation. The SR-LAB calibration unit was used routinely to ensure consistent stabilimeter sensitivity between test chambers and over time (Swerdlow and Geyer, 1998, Schizophrenia Bulletin, 24(2), 285-301).
Fifteen minutes before the behavioral procedures conducted at the fourth day, the subject was injected i.p. with an 0.1 mg/kg dose of MK801 or saline, for a total volume of 1 ml per kg of body weight. Next, the subjects passed the three behavioral procedures, described in the following paragraphs.
ASR and PPI were measured using two startle chambers, with each chamber consisting of a Plexiglas cylinder resting on a platform inside a sound-attenuated, ventilated chamber (see also materials section). The animals were tested in pairs with startle chambers counterbalanced across the different experimental groups.
The ASR test measured the ability of the animal to habituate to repetitive loud pulses of noise. […] Movement inside the tube was detected by a piezoelectric accelerometer below the frame. The amplitude of the whole body startle to an acoustic pulse was defined as the average of 100 one-msec accelerometer readings collected from pulse onset. […]
Acoustic Startle Response (ASR): The decrease in ASR in the groups was calculated as the percent of amplitude decrease between the mean of the first five amplitude values and the mean of the last 25 amplitude values.
Percent habituation=100×[(average startle amplitude in Block 1)−(average startle amplitude in Block 5)/(average startle amplitude in Block 1)]. Results were analyzed by two-way ANOVA a between-subject measure of ‘group’ (treatment group).

[1] = system: patients who experience first psychotic episode; experiment: CANTAB Intra-extra dimensional set-shifts (IED), adjuvant study; type: in vivo, human; settings: atypical antipsychotic drug+minocycline 200 mg/day vs +placebo; time x group p<0.0001
Description: The study was carried out in patients who experience first psychotic episode, and has followed the patient for a total duration of 6 months. As the study examines Minocycline as an adjuvant drug, the sample includes patients receiving one of the following atypical anti-psychotic drugs: Risperdal, Zyprexa, Geodon, Seroquel, and Leponex. […] In addition, the subjects were assessed by a battery of computerized neuropsychological tests (CANTAB—Cambridge Neuropsychological Test Automated Battery), measuring attention, memory, and planning. Minocycline was given as an add-on therapy. Prior to randomization into minocycline/placebo adjuvant treatment, a preliminary (lead-in phase) screening phase of placebo treatment was undertaken: Placebo was given as an adjuvant to all patients for two weeks. […] Randomization was then carried out by the principal investigator. […] Clinical status was evaluated by the aforementioned scales at the onset of the study, every week for the first 6 weeks, and then once a month for the rest of the study period. Cognitive capabilities were assessed by the neuropsychological battery of tests according to the following schedule: upon initiation of the study (referred to as visit 1 in FIGS. 5-8), 3 months (referred to as visit 2 in FIGS. 5-8), and 6 months (referred to as visit 3 in FIGS. 5-8) after the start of the study. […]

[2] = system: patients who experience first psychotic episode; experiment: SANS (Scale for the Assessment of Negative Symptoms), adjuvant study; type: in vivo, human; settings: atypical antipsychotic drug+minocycline 200 mg/day vs +placebo; group x time p<0.01
Description: The study was carried out in patients who experience first psychotic episode, and has followed the patient for a total duration of 6 months. As the study examines Minocycline as an adjuvant drug, the sample includes patients receiving one of the following atypical anti-psychotic drugs: Risperdal, Zyprexa, Geodon, Seroquel, and Leponex. […] Initial evaluation included the following clinical measures: • SCID (for reliability of diagnosis) • CGI (Clinical Global Impression) • PANSS (Positive and Negative Syndrome Scale for Schizophrenia) • SANS (Scale for the Assessment of Negative Symptoms) • Calgary Depression Scale for Schizophrenia • GAF • GRAF • Insight and Treatment Attitudes Questionnaire • QLS (Quality of Life Scale) • Multinomah Community Ability Scale • Extrapyramidal Side Effects Scale. Minocycline was given as an add-on therapy. […] Clinical status was evaluated by the aforementioned scales at the onset of the study, every week for the first 6 weeks, and then once a month for the rest of the study period. Cognitive capabilities were assessed by the neuropsychological battery of tests according to the following schedule: upon initiation of the study (referred to as visit 1 in FIGS. 5-8), 3 months (referred to as visit 2 in FIGS. 5-8), and 6 months (referred to as visit 3 in FIGS. 5-8) after the start of the study. […]

With `CN(C)c1ccc(O)c2c1C[C@H]1C[C@H]3[C@H](N(C)C)C(O)=C(C(N)=O)C(=O)[C@@]3(O)C(O)=C1C2=O` [minocycline] as the compound, how does the “percent habituation of the startle response (% habituation)” value (MK801 treated rats; drug alone (no MK801) vs saline treated animals) read?
Its value is “no effect on habituation of ASR”.

What about the “percent habituation of the startle response (% habituation)” value (MK801 treated rats; drug+MK801 0.1 mg/kg i.p., minocycline 35 mg/kg x 3 days pretreatment, haloperidol 0.4 mg/kg i.p.) of the same compound?
The value was “able to prevent the deficits induced by MK801”.

And the “IED measures (number of stages completed, total errors adjusted, Pre-ED errors, EDS errors)” value [1]?
Its value is “improved significantly more than the placebo group on all the IED measures except for the Pre-ED errors measure”.

And the “total SANS score” value [2]?
The value was “greater improvement than the placebo group”.
